Our source for the activity values is patent US9879036B2, “Mitochondrial aldehyde dehydrogenase-2 binding compounds and methods of use thereof” (Aviv Therapeutics, Inc., priority 2014, dated 2018).

Each structure is given as a SMILES string. Positions count from the first letter of the chain named.

The target in the experiment is T1, ALDH2*1/*2 (Homo sapiens, UniProt P05091, E504K).
T1 construct: His-tag; made in house; host or cells: E. coli BL21 (pETDuet-1 co-expression)
T1 sequence (P05091 18-517): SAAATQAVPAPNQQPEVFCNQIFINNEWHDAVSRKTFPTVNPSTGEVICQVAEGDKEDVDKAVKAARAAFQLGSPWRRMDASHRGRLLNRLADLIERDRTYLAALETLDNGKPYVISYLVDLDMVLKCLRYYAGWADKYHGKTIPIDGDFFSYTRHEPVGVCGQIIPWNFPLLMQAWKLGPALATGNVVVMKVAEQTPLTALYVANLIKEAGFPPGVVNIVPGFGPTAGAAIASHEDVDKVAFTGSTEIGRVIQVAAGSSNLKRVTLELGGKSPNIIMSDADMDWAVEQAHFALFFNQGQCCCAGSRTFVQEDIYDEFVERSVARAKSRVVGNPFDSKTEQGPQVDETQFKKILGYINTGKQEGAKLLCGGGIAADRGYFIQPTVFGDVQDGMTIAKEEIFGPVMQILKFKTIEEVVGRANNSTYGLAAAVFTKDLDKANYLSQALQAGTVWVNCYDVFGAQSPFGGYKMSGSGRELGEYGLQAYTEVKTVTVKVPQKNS
T1 sequence (P05091 18-517 E504K): T1 sequence (P05091 18-517) with E487K
Kind of experiment: ALDH2 enzymatic activity, NADH accumulation at 340 nm, acetaldehyde substrate, heterozygous form. Format: biochemical. The conditions noted are these: relative to baseline enzymatic activity (100%). In outline:
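N-terminally His-tagged recombinant human ALDH2 (wild type, or E487K co-expressed with wild type for heterotetramers) was made in E. coli and Ni-purified. Activity was followed as NADH formation at 340 nm with acetaldehyde and NAD+, with compound at 20 to 0.16 μM, expressed as % of baseline activity.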

As to `COc1ccc(CNC(=O)c2cc(-c3ncccc3CO)ccc2OCC2CC2)cc1F` [AC6], under “2.5 μM compound”, the activity at 2.5 µM was found to be 202%. For the same compound, under “5 μM compound”, the activity at 5 µM is 260%. Moreover, the activity at 10 µM (10 μM compound) amounted to 281%. Further, under “20 μM compound”, the activity at 20 µM was 336%.
